# According to PMC10709135 (iScience, 2023):
# Target: T1, fl-KcsA (full-length KcsA) (Streptomyces lividans, UniProt P0A334)
# T1 sequence (P0A334 1-160): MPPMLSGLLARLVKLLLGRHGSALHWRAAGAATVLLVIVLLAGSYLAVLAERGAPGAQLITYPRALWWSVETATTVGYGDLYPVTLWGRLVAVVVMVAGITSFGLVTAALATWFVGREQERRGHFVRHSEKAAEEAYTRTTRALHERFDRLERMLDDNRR
# Assay: SPR, KcsA immobilised on SAM chip
# Assay type: binding
# Settings: specific blocker; type of constant not given
compound,measurement,value
CCCC[N+](CCCC)(CCCC)CCCC [TBA],binding affinity,The binding affinity of TBA to KcsA deduced from the present SPR study
